Test results as given in ChEMBL document CHEMBL3046822, “Synthesis, antiplatelet aggregation activity, and molecular modeling study of novel substituted-piperazine analogues” (2011).
Active and inactive are the calls of the source. The calls are words filed in the database; no cut-off is given here.

Tests used:
Platelet [1] = experiment: Antiaggregating activity in Homo sapiens (human) platelet rich plasma assessed as inhibition of adrenaline-induced platelet aggregation at 10 uM incubated for 4 min prior to adrenaline-induction measured for 5.5 min by turbidometric analysis; type: functional, cell-free
Platelet [2] = experiment: Antiaggregating activity in Homo sapiens (human) platelet rich plasma assessed as inhibition of arachidonic acid-induced platelet aggregation at 5 uM incubated for 4 min prior to arachidonic acid-induction measured for 5.5 min by turbidometric analysis; type: functional, cell-free
Platelet [3] = experiment: Antiaggregating activity in Homo sapiens (human) platelet rich plasma assessed as inhibition of ADP-induced platelet aggregation at 10 uM incubated for 4 min prior to ADP-induction measured for 5.5 min by turbidometric analysis; type: functional, cell-free
Platelet [4] = experiment: Antiaggregating activity in Homo sapiens (human) platelet rich plasma assessed as inhibition of collagen-induced platelet aggregation at 4 uM incubated for 4 min prior to collagen-induction measured for 5.5 min by turbidometric analysis; type: functional, cell-free
Platelet [5] = experiment: Antiaggregating activity in Homo sapiens (human) platelet rich plasma assessed as inhibition of collagen-induced platelet aggregation at 10 uM incubated for 4 min prior to collagen-induction measured for 5.5 min by turbidometric analysis; type: functional, cell-free
[6] = Antiaggregating activity in Homo sapiens (human) platelet rich plasma assessed as ristocetin-induced platelet aggregation at 10 uM incubated for 4 min prior to ristocetin-induction measured for 5.5 min by turbidometric analysis (reference value: 65 to 99%); type: functional
Platelet [7] = experiment: Antiaggregating activity in Homo sapiens (human) platelet rich plasma assessed as inhibition of adrenaline-induced platelet aggregation at 4 uM incubated for 4 min prior to adrenaline-induction measured for 5.5 min by turbidometric analysis; type: functional, cell-free
[8] = Antiaggregating activity in Homo sapiens (human) platelet rich plasma assessed as disaggregation of ADP-induced platelet aggregation at 5 uM incubated for 4 min prior to ADP-induction measured for 5.5 min by turbidometric analysis relative to control; type: functional
[9] = Antiaggregating activity in Homo sapiens (human) platelet rich plasma assessed as disaggregation of ADP-induced platelet aggregation at 4 uM incubated for 4 min prior to ADP-induction measured for 5.5 min by turbidometric analysis relative to control; type: functional
[10] = Antiaggregating activity in Homo sapiens (human) platelet rich plasma assessed as ristocetin-induced platelet aggregation at 4 uM incubated for 4 min prior to ristocetin-induction measured for 5.5 min by turbidometric analysis (reference value: 65 to 99%); type: functional
[11] = Antiaggregating activity in Homo sapiens (human) platelet rich plasma assessed as ristocetin-induced platelet aggregation at 5 uM incubated for 4 min prior to ristocetin-induction measured for 5.5 min by turbidometric analysis (reference value: 65 to 99%); type: functional
Platelet [12] = experiment: Antiaggregating activity in Homo sapiens (human) platelet rich plasma assessed as inhibition of collagen-induced platelet aggregation at 5 uM incubated for 4 min prior to collagen-induction measured for 5.5 min by turbidometric analysis; type: functional, cell-free
Platelet [13] = experiment: Antiaggregating activity in Homo sapiens (human) platelet rich plasma assessed as inhibition of arachidonic acid-induced platelet aggregation at 10 uM incubated for 4 min prior to arachidonic acid-induction measured for 5.5 min by turbidometric analysis; type: functional, cell-free
Platelet [14] = experiment: Antiaggregating activity in Homo sapiens (human) platelet rich plasma assessed as inhibition of arachidonic acid-induced platelet aggregation at 4 uM incubated for 4 min prior to arachidonic acid-induction measured for 5.5 min by turbidometric analysis; type: functional, cell-free
Platelet [15] = experiment: Antiaggregating activity in Homo sapiens (human) platelet rich plasma assessed as inhibition of adrenaline-induced platelet aggregation at 5 uM incubated for 4 min prior to adrenaline-induction measured for 5.5 min by turbidometric analysis; type: functional, cell-free
[16] = Antiaggregating activity in Homo sapiens (human) platelet rich plasma assessed as collagen-induced platelet aggregation at 2.5 uM incubated for 4 min prior to collagen-induction measured for 5.5 min by turbidometric analysis (reference value: 50 to 98%); type: functional
[17] = Antiaggregating activity in Homo sapiens (human) platelet rich plasma assessed as ristocetin-induced platelet aggregation at 1 uM incubated for 4 min prior to ristocetin-induction measured for 5.5 min by turbidometric analysis (reference value: 65 to 99%); type: functional
[18] = Antiaggregating activity in Homo sapiens (human) platelet rich plasma assessed as adrenaline-induced platelet aggregation at 2.5 uM incubated for 4 min prior to adrenaline-induction measured for 5.5 min by turbidometric analysis (reference value: 65 to 100%); type: functional
[19] = Antiaggregating activity in Homo sapiens (human) platelet rich plasma assessed as ADP-induced platelet aggregation at 1 uM incubated for 4 min prior to ADP-induction measured for 5.5 min by turbidometric analysis (reference value: 54 to 88%); type: functional
[20] = Antiaggregating activity in Homo sapiens (human) platelet rich plasma assessed as arachidonic acid-induced platelet aggregation at 1 uM incubated for 4 min prior to arachidonic acid-induction measured for 5.5 min by turbidometric analysis (reference value: 55 to 100%); type: functional
[21] = Antiaggregating activity in Homo sapiens (human) platelet rich plasma assessed as ADP-induced platelet aggregation at 2.5 uM incubated for 4 min prior to ADP-induction measured for 5.5 min by turbidometric analysis (reference value: 54 to 88%); type: functional
[22] = Antiaggregating activity in Homo sapiens (human) platelet rich plasma assessed as collagen-induced platelet aggregation at 1 uM incubated for 4 min prior to collagen-induction measured for 5.5 min by turbidometric analysis (reference value: 50 to 98%); type: functional
[23] = Antiaggregating activity in Homo sapiens (human) platelet rich plasma assessed as adrenaline-induced platelet aggregation at 1 uM incubated for 4 min prior to adrenaline-induction measured for 5.5 min by turbidometric analysis (reference value: 65 to 100%); type: functional
[24] = Antiaggregating activity in Homo sapiens (human) platelet rich plasma assessed as arachidonic acid-induced platelet aggregation at 0.6 uM incubated for 4 min prior to arachidonic acid-induction measured for 5.5 min by turbidometric analysis (reference value: 55 to 100%); type: functional
Platelet [25] = experiment: Antiaggregating activity in Homo sapiens (human) platelet rich plasma assessed as inhibition of ristocetin-induced platelet aggregation at 2.5 uM incubated for 4 min prior to ristocetin-induction measured for 5.5 min by turbidometric analysis; type: functional, cell-free

O=C(c1ccc[n+](Cc2ccc(F)cc2)c1)N1CCN(c2ccccc2Cl)CC1.[Cl-]
inhibition (Platelet [1]): Active | inhibition (Platelet [2]): Active | inhibition (Platelet [3]): Active | inhibition (Platelet [4]): Active | inhibition (Platelet [5]): Active | Activity [6]: 24% | inhibition (Platelet [7]): Active | Activity [8]: 40% | Activity [9]: 60% | Activity [10]: 88% | Activity [11]: 87% | inhibition (Platelet [12]): Active | inhibition (Platelet [13]): Active | inhibition (Platelet [14]): Active | inhibition (Platelet [15]): Active

O=C(c1ccc[n+](Cc2ccccc2)c1)N1CCN(c2ccccc2Cl)CC1.[Cl-]
Activity [16]: 82% | Activity [17]: 89% | Activity [18]: 12% | Activity [19]: 83% | Activity [20]: 67% | Activity [21]: 83% | Activity [22]: 80% | Activity [23]: 75% | Activity [24]: 53% | inhibition (Platelet [25]): Active
